# According to ChEMBL document CHEMBL5584338, “Design, Synthesis, and Biological Evaluation of 5-Amino-4-fluoro-1H-benzo[d]imidazole-6-carboxamide Derivatives as Novel and Potential MEK/RAF Complex Inhibitors Based on the "Clamp" Strategy” (J Med Chem, 2024):
# Activity calls are given as the source filed them. The rule behind the calls is not given here.
# Tested on: not listed separately
# Test: Antiproliferative activity against rat H9c2 cells incubated for 72 hrs by CCK8 assay
# Format: toxicity, cell-based
# Details: not given
row,Compound,IC50 at 72 h [nM]
1,CNS(=O)(=O)Nc1cccc(Cn2cnc3c(F)c(Nc4ccc(I)cc4F)c(C(=O)NOCCO)cc32)c1F,> 50000
2,CNS(=O)(=O)Nc1cccc(Cn2cnc3c(F)c(Nc4ccc(C5CC5)cc4F)c(C(=O)NOCCO)cc32)c1,> 50000
3,CCNS(=O)(=O)Nc1cccc(Cn2cnc3c(F)c(Nc4ccc(C5CC5)cc4F)c(C(=O)NOCCO)cc32)c1,> 50000
4,CNS(=O)(=O)Nc1cccc(Cn2cnc3c(F)c(Nc4ccc(C5CC5)cc4F)c(C(=O)NOCCO)cc32)c1F,> 50000

# Tested on: not listed separately
# Test: Antiproliferative activity against mouse C26 cells harboring KRAS G12D mutant incubated for 72 hrs by CCK8 assay
# Format: functional, cell-based, C-26
# Details: C26, 72 h
row,Compound,IC50 [nM]
1,CNS(=O)(=O)Nc1cccc(Cn2cnc3c(F)c(Nc4ccc(I)cc4F)c(C(=O)NOCCO)cc32)c1F,11
2,CNS(=O)(=O)Nc1cccc(Cn2cnc3c(F)c(Nc4ccc(C5CC5)cc4F)c(C(=O)NOCCO)cc32)c1,152
3,CCNS(=O)(=O)Nc1cccc(Cn2cnc3c(F)c(Nc4ccc(C5CC5)cc4F)c(C(=O)NOCCO)cc32)c1,226
4,CNS(=O)(=O)Nc1cccc(Cn2cnc3c(F)c(Nc4ccc(C5CC5)cc4F)c(C(=O)NOCCO)cc32)c1F,56

# Tested on: not listed separately
# Test: Stability in human liver microsomes assessed as half life at 200 uM preincubated for 5 mins followed by NADPH addition measured upto 60 mins by LC-MS/MS analysis
# Format: ADME, Microsome
# Details: time 65 min
row,Compound,half-life at 200 µM [min]
1,CNS(=O)(=O)Nc1cccc(Cn2cnc3c(F)c(Nc4ccc(I)cc4F)c(C(=O)NOCCO)cc32)c1F,25
2,CCNS(=O)(=O)Nc1cccc(Cn2cnc3c(F)c(Nc4ccc(C5CC5)cc4F)c(C(=O)NOCCO)cc32)c1,47.5
3,CNS(=O)(=O)Nc1cccc(Cn2cnc3c(F)c(Nc4ccc(C5CC5)cc4F)c(C(=O)NOCCO)cc32)c1F,37.7

# Tested on: Mitogen-activated protein kinase 1/3 (ERK1/2) (Homo sapiens)
# Test: Inhibition of ERK phosphorylation in human MIA PaCa-2 cells upto 1 uM incubated for 4 hrs by Western blot analysis
# Details: not given
row,Compound,inhibition
1,CNS(=O)(=O)Nc1cccc(Cn2cnc3c(F)c(Nc4ccc(I)cc4F)c(C(=O)NOCCO)cc32)c1F,Active
2,CC(=O)Nc1cccc(Cn2cnc3c(F)c(Nc4ccc(C5CC5)cc4F)c(C(=O)NOCCO)cc32)c1,Active
3,CCNS(=O)(=O)Nc1cccc(Cn2cnc3c(F)c(Nc4ccc(C5CC5)cc4F)c(C(=O)NOCCO)cc32)c1,Active
4,CNS(=O)(=O)Nc1cccc(Cn2cnc3c(F)c(Nc4ccc(C5CC5)cc4F)c(C(=O)NOCCO)cc32)c1F,Active

# Tested on: MIA PaCa-2
# Test: Antiproliferative activity against human MIA PaCa-2 cells harboring KRAS G12C mutant at 0.1 uM incubated for 72 hrs by CCK8 assay relative to control
# Format: functional
# Details: not given
row,Compound,inhibition at 0.1 µM [%]
1,CNS(=O)(=O)Nc1cccc(Cn2cnc3c(F)c(Nc4ccc(I)cc4F)c(C(=O)NOCCO)cc32)c1F,62
2,CC(=O)Nc1cccc(Cn2cnc3c(F)c(Nc4ccc(C5CC5)cc4F)c(C(=O)NOCCO)cc32)c1,64.8
3,CNS(=O)(=O)Nc1cccc(Cn2cnc3c(F)c(Nc4ccc(C5CC5)cc4F)c(C(N)=O)cc32)c1,15.8
4,CNS(=O)(=O)Nc1cccc(Cn2cnc3c(F)c(Nc4ccc(C5CC5)cc4F)c(C(=O)NOCCO)cc32)c1,53.1
5,CCNS(=O)(=O)Nc1cccc(Cn2cnc3c(F)c(Nc4ccc(C5CC5)cc4F)c(C(=O)NOCCO)cc32)c1,78.8
6,CCNS(=O)(=O)Nc1cccc(Cn2cnc3c(F)c(Nc4ccc(C5CC5)cc4F)c(C(=O)NOCCO)cc32)c1Cl,76
7,CNS(=O)(=O)Nc1cccc(Cn2cnc3c(F)c(Nc4ccc(C5CC5)cc4F)c(C(=O)NOCCO)cc32)c1F,75.9

# Target: T1, Serine/threonine-protein kinase B-raf (Homo sapiens, UniProt P15056)
# T1 sequence (P15056 whole entry): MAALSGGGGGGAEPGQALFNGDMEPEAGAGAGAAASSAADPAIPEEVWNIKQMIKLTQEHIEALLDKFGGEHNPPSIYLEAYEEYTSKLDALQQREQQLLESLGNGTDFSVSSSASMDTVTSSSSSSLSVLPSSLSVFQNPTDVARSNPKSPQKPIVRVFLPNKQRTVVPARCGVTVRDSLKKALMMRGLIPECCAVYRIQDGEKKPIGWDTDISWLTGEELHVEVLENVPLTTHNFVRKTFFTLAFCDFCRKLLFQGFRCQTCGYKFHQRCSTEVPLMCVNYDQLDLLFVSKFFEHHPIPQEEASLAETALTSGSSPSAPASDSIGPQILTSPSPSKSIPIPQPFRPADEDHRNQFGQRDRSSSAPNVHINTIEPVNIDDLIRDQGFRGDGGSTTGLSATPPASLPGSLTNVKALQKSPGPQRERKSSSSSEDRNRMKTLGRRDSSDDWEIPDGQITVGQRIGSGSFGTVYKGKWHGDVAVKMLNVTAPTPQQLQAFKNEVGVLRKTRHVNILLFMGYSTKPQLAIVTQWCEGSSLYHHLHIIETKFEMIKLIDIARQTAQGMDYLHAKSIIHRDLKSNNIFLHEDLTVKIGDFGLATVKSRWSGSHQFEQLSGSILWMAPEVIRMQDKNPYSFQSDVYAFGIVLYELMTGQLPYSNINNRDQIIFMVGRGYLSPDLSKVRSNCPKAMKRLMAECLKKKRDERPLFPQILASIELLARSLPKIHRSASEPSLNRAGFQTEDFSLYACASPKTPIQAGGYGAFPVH
# Test: Inhibition of BRAF (unknown origin)
# Details: not given
row,Compound,IC50 [nM]
1,CNS(=O)(=O)Nc1cccc(Cn2cnc3c(F)c(Nc4ccc(I)cc4F)c(C(=O)NOCCO)cc32)c1F,4
2,CNS(=O)(=O)Nc1cccc(Cn2cnc3c(F)c(Nc4ccc(C5CC5)cc4F)c(C(=O)NOCCO)cc32)c1,5
3,CCNS(=O)(=O)Nc1cccc(Cn2cnc3c(F)c(Nc4ccc(C5CC5)cc4F)c(C(=O)NOCCO)cc32)c1,7
4,CNS(=O)(=O)Nc1cccc(Cn2cnc3c(F)c(Nc4ccc(C5CC5)cc4F)c(C(=O)NOCCO)cc32)c1F,4

# Tested on: HCT-116
# Test: Antiproliferative activity against human HCT-116 cells harboring KRAS G13D mutant incubated for 72 hrs by CCK8 assay
# Format: functional, cell-based
# Details: HCT-116, 72 h
row,Compound,IC50 [nM]
1,CNS(=O)(=O)Nc1cccc(Cn2cnc3c(F)c(Nc4ccc(I)cc4F)c(C(=O)NOCCO)cc32)c1F,74
2,CNS(=O)(=O)Nc1cccc(Cn2cnc3c(F)c(Nc4ccc(C5CC5)cc4F)c(C(=O)NOCCO)cc32)c1,223
3,CCNS(=O)(=O)Nc1cccc(Cn2cnc3c(F)c(Nc4ccc(C5CC5)cc4F)c(C(=O)NOCCO)cc32)c1,123
4,CCNS(=O)(=O)Nc1cccc(Cn2cnc3c(F)c(Nc4ccc(C5CC5)cc4F)c(C(=O)NOCCO)cc32)c1Cl,731
5,CNS(=O)(=O)Nc1cccc(Cn2cnc3c(F)c(Nc4ccc(C5CC5)cc4F)c(C(=O)NOCCO)cc32)c1F,183

# Tested on: not listed separately
# Test: Inhibition of BRAF […] mutant (unknown origin)
# Set-up: species or system Homo sapiens
# Details: not given
row,Compound,IC50 [nM]
1,CNS(=O)(=O)Nc1cccc(Cn2cnc3c(F)c(Nc4ccc(C5CC5)cc4F)c(C(=O)NOCCO)cc32)c1,16
2,CCNS(=O)(=O)Nc1cccc(Cn2cnc3c(F)c(Nc4ccc(C5CC5)cc4F)c(C(=O)NOCCO)cc32)c1,8
3,CNS(=O)(=O)Nc1cccc(Cn2cnc3c(F)c(Nc4ccc(C5CC5)cc4F)c(C(=O)NOCCO)cc32)c1F,5

# Target: Dual specificity mitogen-activated protein kinase kinase; MEK1/2 (Homo sapiens) (UniProt P36507+Q02750)
# Sequence (P36507 whole entry, looked up): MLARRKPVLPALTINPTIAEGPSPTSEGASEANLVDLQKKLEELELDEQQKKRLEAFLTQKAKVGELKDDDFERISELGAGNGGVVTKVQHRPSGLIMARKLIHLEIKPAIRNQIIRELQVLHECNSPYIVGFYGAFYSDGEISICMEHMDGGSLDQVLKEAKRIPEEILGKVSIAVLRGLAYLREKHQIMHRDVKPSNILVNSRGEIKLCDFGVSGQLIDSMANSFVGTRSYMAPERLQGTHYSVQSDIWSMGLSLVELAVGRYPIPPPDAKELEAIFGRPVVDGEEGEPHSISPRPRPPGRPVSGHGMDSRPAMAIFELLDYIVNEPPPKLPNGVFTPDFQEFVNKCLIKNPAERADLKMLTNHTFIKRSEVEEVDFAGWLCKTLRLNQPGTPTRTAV
# Sequence (Q02750 whole entry, looked up): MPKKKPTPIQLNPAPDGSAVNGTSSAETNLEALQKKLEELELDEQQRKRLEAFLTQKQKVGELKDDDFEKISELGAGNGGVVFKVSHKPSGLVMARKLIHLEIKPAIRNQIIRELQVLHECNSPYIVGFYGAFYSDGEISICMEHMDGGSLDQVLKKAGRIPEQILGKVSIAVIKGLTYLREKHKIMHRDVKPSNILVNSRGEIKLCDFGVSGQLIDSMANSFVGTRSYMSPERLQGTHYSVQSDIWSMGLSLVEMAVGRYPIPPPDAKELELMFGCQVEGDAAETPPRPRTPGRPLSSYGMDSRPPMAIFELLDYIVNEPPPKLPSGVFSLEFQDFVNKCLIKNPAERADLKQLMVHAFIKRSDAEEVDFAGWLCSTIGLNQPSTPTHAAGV
# Test: Inhibition of MEK phosphorylation in human MIA PaCa-2 cells upto 1 uM incubated for 4 hrs by Western blot analysis
# Format: cell-based
# Details: not given
row,Compound,inhibition
1,CNS(=O)(=O)Nc1cccc(Cn2cnc3c(F)c(Nc4ccc(I)cc4F)c(C(=O)NOCCO)cc32)c1F,Active
2,CNS(=O)(=O)Nc1cccc(Cn2cnc3c(F)c(Nc4ccc(C5CC5)cc4F)c(C(=O)NOCCO)cc32)c1F,Active

# Tested on: HeLa
# Test: Antiproliferative activity against human HeLa cells incubated for 72 hrs by CCK8 assay
# Format: functional, cell-based
# Details: not given
row,Compound,IC50 [nM]
1,CNS(=O)(=O)Nc1cccc(Cn2cnc3c(F)c(Nc4ccc(I)cc4F)c(C(=O)NOCCO)cc32)c1F,> 10000
2,CNS(=O)(=O)Nc1cccc(Cn2cnc3c(F)c(Nc4ccc(C5CC5)cc4F)c(C(=O)NOCCO)cc32)c1,> 10000
3,CCNS(=O)(=O)Nc1cccc(Cn2cnc3c(F)c(Nc4ccc(C5CC5)cc4F)c(C(=O)NOCCO)cc32)c1,> 10000
4,CNS(=O)(=O)Nc1cccc(Cn2cnc3c(F)c(Nc4ccc(C5CC5)cc4F)c(C(=O)NOCCO)cc32)c1F,> 10000

# Target: T1, Serine/threonine-protein kinase B-raf
# Test: Inhibition of BRAF (unknown origin) assessed as remaining activity at 0.1 uM relative to control
# Details: not given
row,Compound,Activity [%]
1,CNS(=O)(=O)Nc1cccc(Cn2cnc3c(F)c(Nc4ccc(I)cc4F)c(C(=O)NOCCO)cc32)c1F,-2
2,CC(=O)Nc1cccc(Cn2cnc3c(F)c(Nc4ccc(C5CC5)cc4F)c(C(=O)NOCCO)cc32)c1,22
3,CNS(=O)(=O)Nc1cccc(Cn2cnc3c(F)c(Nc4ccc(C5CC5)cc4F)c(C(=O)NOCCO)cc32)c1,5
4,CCNS(=O)(=O)Nc1cccc(Cn2cnc3c(F)c(Nc4ccc(C5CC5)cc4F)c(C(=O)NOCCO)cc32)c1,0
5,CCNS(=O)(=O)Nc1cccc(Cn2cnc3c(F)c(Nc4ccc(C5CC5)cc4F)c(C(=O)NOCCO)cc32)c1Cl,3
6,CNS(=O)(=O)Nc1cccc(Cn2cnc3c(F)c(Nc4ccc(C5CC5)cc4F)c(C(=O)NOCCO)cc32)c1F,-4

# Tested on: MIA PaCa-2
# Test: Antiproliferative activity against human MIA PaCa-2 cells harboring KRAS G12C mutant incubated for 72 hrs by CCK8 assay
# Format: functional, cell-based
# Details: MIA PaCa-2, 72 h
row,Compound,IC50 [nM]
1,CNS(=O)(=O)Nc1cccc(Cn2cnc3c(F)c(Nc4ccc(I)cc4F)c(C(=O)NOCCO)cc32)c1F,71
2,CC(=O)Nc1cccc(Cn2cnc3c(F)c(Nc4ccc(C5CC5)cc4F)c(C(=O)NOCCO)cc32)c1,237
3,CNS(=O)(=O)Nc1cccc(Cn2cnc3c(F)c(Nc4ccc(C5CC5)cc4F)c(C(=O)NOCCO)cc32)c1,114
4,CCNS(=O)(=O)Nc1cccc(Cn2cnc3c(F)c(Nc4ccc(C5CC5)cc4F)c(C(=O)NOCCO)cc32)c1,23
5,CCNS(=O)(=O)Nc1cccc(Cn2cnc3c(F)c(Nc4ccc(C5CC5)cc4F)c(C(=O)NOCCO)cc32)c1Cl,31
6,CNS(=O)(=O)Nc1cccc(Cn2cnc3c(F)c(Nc4ccc(C5CC5)cc4F)c(C(=O)NOCCO)cc32)c1F,15

# Target: T2, Dual specificity mitogen-activated protein kinase kinase 1 (Homo sapiens, UniProt Q02750)
# T2 sequence (Q02750 whole entry): as the sequence (Q02750 whole entry, looked up) above
# Test: Inhibition of MEK1 (unknown origin) assessed as remaining activity at 0.1 uM relative to control
# Details: not given
row,Compound,Activity [%]
1,CNS(=O)(=O)Nc1cccc(Cn2cnc3c(F)c(Nc4ccc(I)cc4F)c(C(=O)NOCCO)cc32)c1F,9
2,CC(=O)Nc1cccc(Cn2cnc3c(F)c(Nc4ccc(C5CC5)cc4F)c(C(=O)NOCCO)cc32)c1,75
3,CNS(=O)(=O)Nc1cccc(Cn2cnc3c(F)c(Nc4ccc(C5CC5)cc4F)c(C(=O)NOCCO)cc32)c1,58
4,CCNS(=O)(=O)Nc1cccc(Cn2cnc3c(F)c(Nc4ccc(C5CC5)cc4F)c(C(=O)NOCCO)cc32)c1,46
5,CCNS(=O)(=O)Nc1cccc(Cn2cnc3c(F)c(Nc4ccc(C5CC5)cc4F)c(C(=O)NOCCO)cc32)c1Cl,20
6,CNS(=O)(=O)Nc1cccc(Cn2cnc3c(F)c(Nc4ccc(C5CC5)cc4F)c(C(=O)NOCCO)cc32)c1F,40

# Tested on: HCT-116
# Test: Antiproliferative activity against human HCT-116 cells harboring KRAS G13D mutant at 1 uM incubated for 72 hrs by CCK8 assay relative to control
# Format: functional
# Details: not given
row,Compound,inhibition at 1 µM [%]
1,CNS(=O)(=O)Nc1cccc(Cn2cnc3c(F)c(Nc4ccc(I)cc4F)c(C(=O)NOCCO)cc32)c1F,64.8
2,CC(=O)Nc1cccc(Cn2cnc3c(F)c(Nc4ccc(C5CC5)cc4F)c(C(=O)NOCCO)cc32)c1,33.3
3,CNS(=O)(=O)Nc1cccc(Cn2cnc3c(F)c(Nc4ccc(C5CC5)cc4F)c(C(N)=O)cc32)c1,21.9
4,CNS(=O)(=O)Nc1cccc(Cn2cnc3c(F)c(Nc4ccc(C5CC5)cc4F)c(C(=O)NOCCO)cc32)c1,52.8
5,CCNS(=O)(=O)Nc1cccc(Cn2cnc3c(F)c(Nc4ccc(C5CC5)cc4F)c(C(=O)NOCCO)cc32)c1,60.4
6,CCNS(=O)(=O)Nc1cccc(Cn2cnc3c(F)c(Nc4ccc(C5CC5)cc4F)c(C(=O)NOCCO)cc32)c1Cl,49.6
7,CNS(=O)(=O)Nc1cccc(Cn2cnc3c(F)c(Nc4ccc(C5CC5)cc4F)c(C(=O)NOCCO)cc32)c1F,61.2

# Target: T2, Dual specificity mitogen-activated protein kinase kinase 1
# Test: Inhibition of MEK1 (unknown origin)
# Details: not given
row,Compound,IC50 [nM]
1,CNS(=O)(=O)Nc1cccc(Cn2cnc3c(F)c(Nc4ccc(I)cc4F)c(C(=O)NOCCO)cc32)c1F,8
2,CNS(=O)(=O)Nc1cccc(Cn2cnc3c(F)c(Nc4ccc(C5CC5)cc4F)c(C(N)=O)cc32)c1,> 2000
3,CNS(=O)(=O)Nc1cccc(Cn2cnc3c(F)c(Nc4ccc(C5CC5)cc4F)c(C(=O)NOCCO)cc32)c1,119
4,CCNS(=O)(=O)Nc1cccc(Cn2cnc3c(F)c(Nc4ccc(C5CC5)cc4F)c(C(=O)NOCCO)cc32)c1,74
5,CNS(=O)(=O)Nc1cccc(Cn2cnc3c(F)c(Nc4ccc(C5CC5)cc4F)c(C(=O)NOCCO)cc32)c1F,42
